Read-outs that look alike come from different tables or passages of the source.
Legend:
CSF1R = CSF1R (Homo sapiens, UniProt P07333); assay: KINOMEscan competition binding assay for CSF1R; parameters: DNA tag for qPCR (not a peptide); host or cells: E. coli/T7 phage or HEK-293
Summary of the method: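 Values are either % inhibition at 0.1 uM, relative to DMSO (100% Ctrl) and a control compound (0% Ctrl), or Kd from an 11-point 3-fold series fitted with Hill slope −1. DNA-tagged kinase binds immobilized ligand beads with compound for 1 h at room temperature, and eluted kinase is measured by qPCR.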

Axl = molecular target: T1, Axl (Homo sapiens, UniProt P30530); assay: LanthaScreen Eu kinase binding assay for Axl; details: read-out: Axl kinase binding activity (Kd)
T1 sequence (P30530 26-894): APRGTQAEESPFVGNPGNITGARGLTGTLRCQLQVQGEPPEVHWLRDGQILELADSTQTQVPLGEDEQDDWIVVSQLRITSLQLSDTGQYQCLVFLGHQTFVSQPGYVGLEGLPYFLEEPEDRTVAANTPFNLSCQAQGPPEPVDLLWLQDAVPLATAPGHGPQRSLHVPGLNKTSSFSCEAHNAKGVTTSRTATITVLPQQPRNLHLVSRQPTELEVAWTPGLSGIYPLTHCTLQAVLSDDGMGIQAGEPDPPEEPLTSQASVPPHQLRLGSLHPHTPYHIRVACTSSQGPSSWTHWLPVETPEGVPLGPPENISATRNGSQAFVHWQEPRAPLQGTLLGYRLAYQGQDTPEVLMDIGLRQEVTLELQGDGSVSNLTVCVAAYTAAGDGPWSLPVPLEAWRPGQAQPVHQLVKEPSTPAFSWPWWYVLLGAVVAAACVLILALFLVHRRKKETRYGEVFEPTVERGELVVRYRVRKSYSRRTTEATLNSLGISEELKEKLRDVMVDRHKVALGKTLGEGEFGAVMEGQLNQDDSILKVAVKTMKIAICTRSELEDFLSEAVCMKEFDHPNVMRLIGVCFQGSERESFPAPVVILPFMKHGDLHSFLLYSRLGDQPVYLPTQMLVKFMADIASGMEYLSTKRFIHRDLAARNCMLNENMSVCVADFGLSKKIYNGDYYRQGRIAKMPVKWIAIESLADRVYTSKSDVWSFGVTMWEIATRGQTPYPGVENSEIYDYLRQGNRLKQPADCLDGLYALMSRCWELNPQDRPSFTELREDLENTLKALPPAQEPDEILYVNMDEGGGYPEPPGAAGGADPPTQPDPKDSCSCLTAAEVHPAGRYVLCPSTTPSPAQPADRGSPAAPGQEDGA
Summary of the method: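 Kd values come from control-normalized FRET loss, referenced to DMSO vehicle wells, after 1 h at room temperature. Each compound was serially diluted over eight steps in DMSO and competed against Tracer 236 (Alexa Fluor 647) for the kinase, which was tagged by a Eu anti-GST antibody.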

[1] = read-out: CSF1R kinase binding activity, Percent (%) inhibition
[2] = read-out: CSF1R kinase binding activity, Range

Sequence of CSF1R (P07333 20-972): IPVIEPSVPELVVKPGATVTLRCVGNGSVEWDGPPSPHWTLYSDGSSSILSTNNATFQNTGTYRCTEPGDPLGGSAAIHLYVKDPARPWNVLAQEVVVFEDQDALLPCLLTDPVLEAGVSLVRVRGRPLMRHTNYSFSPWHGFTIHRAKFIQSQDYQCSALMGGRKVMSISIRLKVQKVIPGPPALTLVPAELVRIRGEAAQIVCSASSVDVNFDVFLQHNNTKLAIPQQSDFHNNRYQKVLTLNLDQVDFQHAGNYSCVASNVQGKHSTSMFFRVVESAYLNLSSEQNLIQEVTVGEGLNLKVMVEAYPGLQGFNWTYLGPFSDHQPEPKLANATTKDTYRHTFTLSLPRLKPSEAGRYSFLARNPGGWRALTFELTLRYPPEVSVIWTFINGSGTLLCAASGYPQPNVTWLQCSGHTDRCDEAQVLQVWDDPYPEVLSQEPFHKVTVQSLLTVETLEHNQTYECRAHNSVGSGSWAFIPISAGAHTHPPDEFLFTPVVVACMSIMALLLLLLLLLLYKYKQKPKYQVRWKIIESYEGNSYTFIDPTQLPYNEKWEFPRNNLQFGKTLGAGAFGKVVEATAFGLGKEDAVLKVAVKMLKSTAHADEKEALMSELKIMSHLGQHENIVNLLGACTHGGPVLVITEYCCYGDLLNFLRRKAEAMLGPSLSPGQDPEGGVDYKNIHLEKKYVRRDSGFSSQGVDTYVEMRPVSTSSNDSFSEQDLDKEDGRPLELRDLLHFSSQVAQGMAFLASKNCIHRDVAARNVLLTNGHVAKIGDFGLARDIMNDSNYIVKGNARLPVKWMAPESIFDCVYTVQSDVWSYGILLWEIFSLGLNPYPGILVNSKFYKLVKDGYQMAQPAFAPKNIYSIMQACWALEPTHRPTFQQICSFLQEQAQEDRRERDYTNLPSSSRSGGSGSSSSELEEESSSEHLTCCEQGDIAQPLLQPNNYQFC

CCCn1cc(OCC2CCC2)c(C(=O)Nc2ccc(Oc3ccnc4cc(OC)c(OC(F)(F)F)cc34)cn2)n1 [Compound 167]
inhibition at 0.1 µM (CSF1R; [1]): 0%
inhibition at 0.1 µM (CSF1R; [2]): < 50%
Kd (Axl): < 100 nM

COc1cc2nccc(Oc3ccc(NC(=O)c4nn(CC(C)N)cc4OCC(F)(F)F)nc3)c2cc1OC (stereo not shown) [Compound 63]
inhibition at 0.1 µM (CSF1R; [1]): 96%
inhibition at 0.1 µM (CSF1R; [2]): ≥ 80%
Kd (Axl): < 100 nM

CCCn1cc(OCCC(O)CO)c(C(=O)Nc2ccc(Oc3ccnc4cc(OC)c(OC)cc34)cn2)n1 (stereo not shown) [Compound 15]
inhibition at 0.1 µM (CSF1R; [1]): 87%
inhibition at 0.1 µM (CSF1R; [2]): ≥ 80%
Kd (Axl): < 100 nM

COc1cc2nccc(Oc3ccc(NC(=O)c4nn(C5CCCC5)cc4OCC(F)(F)F)cc3)c2cc1OC [Compound 60]
inhibition at 0.1 µM (CSF1R; [1]): 75%
inhibition at 0.1 µM (CSF1R; [2]): 50 to 80%
Kd (Axl): < 100 nM

COc1cc2nccc(Oc3ccc(NC(=O)c4nn(CC5CCN(C)C5)cc4OCC(F)(F)F)nc3)c2cc1OC (stereo not shown) [Compound 169]
inhibition at 0.1 µM (CSF1R; [1]): 93%
inhibition at 0.1 µM (CSF1R; [2]): ≥ 80%
Kd (Axl): < 100 nM

COc1cc2nccc(Oc3ccc(NC(=O)c4nn(CC(C)O)cc4OCC4CN(C)C4)nc3)c2cc1OC (stereo not shown) [Compound 174]
inhibition at 0.1 µM (CSF1R; [1]): 25%
inhibition at 0.1 µM (CSF1R; [2]): < 50%
Kd (Axl): ≥ 500 nM

CCn1nc(C(=O)Nc2ccc(Oc3ccnc4cc(OC)c(OC)cc34)cn2)c(OCC(F)(F)F)c1C [Compound 1]
inhibition at 0.1 µM (CSF1R; [1]): 96%
inhibition at 0.1 µM (CSF1R; [2]): ≥ 80%
Kd (CSF1R; read-out: CSF1R kinase binding activity (Kd)): < 100 nM
Kd (Axl): < 100 nM

COc1cc2nccc(Oc3ccc(NC(=O)c4nn(C5CCOC5)cc4OCC(F)(F)F)cc3)c2cc1OC (stereo not shown) [Compound 62]
inhibition at 0.1 µM (CSF1R; [1]): 54%
inhibition at 0.1 µM (CSF1R; [2]): 50 to 80%
Kd (Axl): < 100 nM

COc1cc2nccc(Oc3ccc(NC(=O)c4nn(CC(C)C)cc4OCC(F)(F)F)cc3C)c2cc1OC [Compound 58]
inhibition at 0.1 µM (CSF1R; [1]): 76%
inhibition at 0.1 µM (CSF1R; [2]): 50 to 80%
Kd (Axl): < 100 nM

COc1cc2nccc(Oc3ccc(NC(=O)c4nn(C5CCNC5)cc4OCC(F)(F)F)c(F)c3)c2cc1OC (stereo not shown) [Compound 74]
inhibition at 0.1 µM (CSF1R; [1]): 39%
inhibition at 0.1 µM (CSF1R; [2]): < 50%
Kd (Axl): 100 to 500 nM

COc1cc2nccc(Oc3ccc(NC(=O)c4nn(CC(C)O)cc4OCC(F)(F)F)c(F)c3)c2cc1OC (stereo not shown) [Compound 76]
inhibition at 0.1 µM (CSF1R; [1]): 94%
inhibition at 0.1 µM (CSF1R; [2]): ≥ 80%
Kd (Axl): < 100 nM

COc1cc2nccc(Oc3ccc(NC(=O)c4nn(CCO)cc4OCC(F)(F)F)cc3)c2cc1OC [Compound 59]
inhibition at 0.1 µM (CSF1R; [1]): 82%
inhibition at 0.1 µM (CSF1R; [2]): ≥ 80%
Kd (Axl): < 100 nM

COc1cc2nccc(Oc3ccc(NC(=O)c4nn(C[C@@H](C)O)cc4OCC(F)(F)F)nc3)c2cc1OC [Compound 29]
inhibition at 0.1 µM (CSF1R; [1]): 99%
inhibition at 0.1 µM (CSF1R; [2]): ≥ 80%
Kd (Axl): < 100 nM

COc1cc2nccc(Oc3ccc(NC(=O)c4nn(CCC#N)cc4OCC(F)(F)F)nc3)c2cc1OC [Compound 39]
inhibition at 0.1 µM (CSF1R; [1]): 97%
inhibition at 0.1 µM (CSF1R; [2]): ≥ 80%
Kd (Axl): < 100 nM

COc1cc2nccc(Oc3ccc(NC(=O)c4nn(CC(C)O)cc4OCC(F)(F)F)nc3)c2cc1OC (stereo not shown) [Compound 17]
inhibition at 0.1 µM (CSF1R; [1]): 97%
inhibition at 0.1 µM (CSF1R; [2]): ≥ 80%
Kd (Axl): < 100 nM

COc1cc2nccc(Oc3ccc(NC(=O)c4nn(CC5CNC5)cc4OCC(F)(F)F)nc3)c2cc1OC [Compound 73]
inhibition at 0.1 µM (CSF1R; [1]): 97%
inhibition at 0.1 µM (CSF1R; [2]): ≥ 80%
Kd (Axl): 100 to 500 nM

COc1cc2nccc(Oc3ccc(NC(=O)c4nn(CC(C)=O)cc4OCC(F)(F)F)nc3)c2cc1OC [Compound 19]
inhibition at 0.1 µM (CSF1R; [1]): 97%
inhibition at 0.1 µM (CSF1R; [2]): ≥ 80%
Kd (Axl): < 100 nM

COCCn1cc(OCC(F)(F)F)c(C(=O)Nc2ccc(Oc3ccnc4cc(OC)c(OC)cc34)cc2F)n1 [Compound 49]
inhibition at 0.1 µM (CSF1R; [1]): 66%
inhibition at 0.1 µM (CSF1R; [2]): 50 to 80%
Kd (Axl): < 100 nM

COc1cc2nccc(Oc3ccc(NC(=O)c4nn(CCNC5CC5)cc4OCC(F)(F)F)nc3)c2cc1OC [Compound 168]
inhibition at 0.1 µM (CSF1R; [1]): 95%
inhibition at 0.1 µM (CSF1R; [2]): ≥ 80%
Kd (Axl): < 100 nM

COc1cc2nccc(Oc3ccc(NC(=O)c4nn(C5CCNC5)cc4OCC(F)(F)F)nc3)c2cc1OC (stereo not shown) [Compound 70]
inhibition at 0.1 µM (CSF1R; [1]): 79%
inhibition at 0.1 µM (CSF1R; [2]): 50 to 80%
Kd (Axl): < 100 nM

CCCn1cc(OCCC(F)(F)F)c(C(=O)Nc2ccc(Oc3ccnc4cc(OC)c(OC)cc34)cn2)n1 [Compound 31]
inhibition at 0.1 µM (CSF1R; [1]): 95%
inhibition at 0.1 µM (CSF1R; [2]): ≥ 80%
Kd (Axl): < 100 nM

COc1cc2nccc(Oc3ccc(NC(=O)c4nn(C)cc4OCC(F)(F)F)nc3)c2cc1OC [Compound 33]
inhibition at 0.1 µM (CSF1R; [1]): 98%
inhibition at 0.1 µM (CSF1R; [2]): ≥ 80%
Kd (Axl): < 100 nM

CCCn1cc(OCC(F)(F)F)c(C(=O)Nc2ccc(Oc3ccnc4cc(OC)c(OC)cc34)c(C)c2)n1 [Compound 26]
inhibition at 0.1 µM (CSF1R; [1]): 94%
inhibition at 0.1 µM (CSF1R; [2]): ≥ 80%
Kd (Axl): < 100 nM

COc1cc2nccc(Oc3ccc(NC(=O)c4nn(CCC(F)(F)F)cc4OCC4CCC4)nc3)c2cc1OC [Compound 166]
inhibition at 0.1 µM (CSF1R; [1]): 84%
inhibition at 0.1 µM (CSF1R; [2]): ≥ 80%
Kd (Axl): < 100 nM

COc1cc2nccc(Oc3ccc(NC(=O)c4nn(C5CC5)cc4OCC4CNC4)nn3)c2cc1OC [Compound 172]
inhibition at 0.1 µM (CSF1R; [1]): 36%
inhibition at 0.1 µM (CSF1R; [2]): < 50%
Kd (Axl): ≥ 500 nM

COc1cc2nccc(Oc3ccc(NC(=O)c4nn(C)cc4OCC(F)(F)F)cc3C)c2cc1OC [Compound 37]
inhibition at 0.1 µM (CSF1R; [1]): 97%
inhibition at 0.1 µM (CSF1R; [2]): ≥ 80%
Kd (Axl): 100 to 500 nM

CCCn1cc(OCC(F)(F)F)c(C(=O)Nc2ccc(Oc3ccnc4cc(OC)c(OC)cc34)cc2C)n1 [Compound 27]
inhibition at 0.1 µM (CSF1R; [1]): 58%
inhibition at 0.1 µM (CSF1R; [2]): 50 to 80%
Kd (Axl): < 100 nM

COc1cc2nccc(Oc3ccc(NC(=O)c4nn(C)cc4OCC(F)(F)F)cc3F)c2cc1OC [Compound 50]
inhibition at 0.1 µM (CSF1R; [1]): 80%
inhibition at 0.1 µM (CSF1R; [2]): 50 to 80%
Kd (Axl): < 100 nM

COc1cc2nccc(Oc3ccc(NC(=O)c4nn(CCO)cc4OCC(F)(F)F)cc3C)c2cc1OC [Compound 56]
inhibition at 0.1 µM (CSF1R; [1]): 0%
inhibition at 0.1 µM (CSF1R; [2]): < 50%
Kd (Axl): 100 to 500 nM

COc1cc2nccc(Oc3ccc(NC(=O)c4nn(C5COC5)cc4OCC(F)(F)F)nc3)c2cc1OC [Compound 66]
inhibition at 0.1 µM (CSF1R; [1]): 96%
inhibition at 0.1 µM (CSF1R; [2]): ≥ 80%
Kd (Axl): < 100 nM

COCCn1cc(OCC(F)(F)F)c(C(=O)Nc2ccc(Oc3ccnc4cc(OC)c(OC)cc34)cc2)n1 [Compound 61]
inhibition at 0.1 µM (CSF1R; [1]): 76%
inhibition at 0.1 µM (CSF1R; [2]): 50 to 80%
Kd (Axl): < 100 nM

CCCn1cc(OC(C)C)c(C(=O)Nc2ccc(Oc3ccnc4cc(OC)c(OC(F)(F)F)cc34)c(F)c2)n1 [Compound 35]
inhibition at 0.1 µM (CSF1R; [1]): 6%
inhibition at 0.1 µM (CSF1R; [2]): < 50%
Kd (Axl): ≥ 500 nM

COc1cc2nccc(Oc3ccc(NC(=O)c4nn(CCOC5CCC5)cc4OCC(F)(F)F)nc3)c2cc1OC [Compound 65]
inhibition at 0.1 µM (CSF1R; [1]): 96%
inhibition at 0.1 µM (CSF1R; [2]): ≥ 80%
Kd (Axl): < 100 nM

COc1cc2nccc(Oc3ccc(NC(=O)c4nc(CCC(F)(F)F)oc4CCC4CCC4)nc3)c2cc1OC [Compound 176]
inhibition at 0.1 µM (CSF1R; [1]): 40%
inhibition at 0.1 µM (CSF1R; [2]): < 50%
Kd (Axl): 100 to 500 nM

COc1cc2nccc(Oc3ccc(NC(=O)c4nn(CCO)cc4OCC(F)(F)F)nc3)c2cc1OC [Compound 67]
inhibition at 0.1 µM (CSF1R; [1]): 96%
inhibition at 0.1 µM (CSF1R; [2]): ≥ 80%
Kd (Axl): < 100 nM

COc1cc2nccc(Oc3ccc(NC(=O)c4nn(CC5CCCC5)cc4OCC(F)(F)F)nc3)c2cc1OC [Compound 71]
inhibition at 0.1 µM (CSF1R; [1]): 88%
inhibition at 0.1 µM (CSF1R; [2]): ≥ 80%
Kd (Axl): < 100 nM

From patent US12162858B2, “Quinoline derivatives as inhibitors of AXL/MER RTK and CSF1R” (QURIENT CO., LTD., priority 2018, dated 2024)
